The source of these data is ChEMBL document CHEMBL1201862, “PubChem BioAssay data set” (2004).

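Exposure lasted 48 hours, with cells grown in 96-well plates and compounds tested at five concentrations. GI50 marks 50% less growth.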 Active and inactive are the calls of the source. Cut-off read from the data, not from the text of the source: active = GI50 up to about 1.1 µM and inactive = higher.

Common to all, as to experiment: NCI tumour cell line growth inhibition, 48 h
Assay [1] deals with Hs-578T.
Assay [2] deals with PC-3.
Assay [3] concerns SK-OV-3.
Assay [4] relates to OVCAR-8.
The test system of assay [5] is NCI/ADR-RES.
Assay [6] has as its system 786-0.
The test system of assay [7] is HCC 2998.
The test system of assay [8] is TK-10.
Assay [9] has as its system HL-60.
Assay [10] relates to SNB-75.
Assay [11] relates to M14.
For assay [12], the system named is DU-145.
Assay [13] concerns U-251.
Assay [14] relates to OVCAR-4.
The subject of assay [15] is SK-MEL-28.
Assay [16] concerns IGROV-1.
In assay [17] the test system is SN12C.
Assay [18] relates to HOP-62.
Assay [19] concerns NCI-H226.
In assay [20] the test system is RXF 393.

As for `Clc1ccc(Oc2ccc(/N=C/c3ccc(Cl)cc3Cl)cc2Cl)cc1`, the GI50 in [1] was 25.9 µM (inactive); in assay [2], 35 µM (inactive); in assay [3], 73.3 µM (inactive); in assay [4] it was 41.2 µM (inactive); in [5] it was 25.7 µM (inactive); in assay [6], 22.4 µM (inactive). Besides, the GI50 in assay [7] was > 100 µM (inactive); in assay [8], > 100 µM (inactive); in assay [9], 9.2 µM (inactive); in assay [10] it was 23.6 µM (inactive); in assay [11], 29.4 µM (inactive); in assay [12], 64.6 µM (inactive). Further, the GI50 in [13] is 29.4 µM (inactive); in assay [14], 44.5 µM (inactive); in assay [15], 34.2 µM (inactive); in assay [16] it was 44.8 µM (inactive); in assay [17], 48.3 µM (inactive); in assay [18] it was 54.3 µM (inactive). Moreover, the GI50 in assay [19] is > 100 µM (inactive).

As for `Cn1c2ccccc2c(=O)c2cccc(C(=O)NC(CS)C(=O)O)c21` (configuration not stated), the GI50 in assay [1] is > 100 µM (inactive); in assay [2] it was > 100 µM (inactive); in assay [3], > 100 µM (inactive); in assay [4], > 100 µM (inactive); in assay [5] it was 23.6 µM (inactive); in assay [6], 81.1 µM (inactive). In addition, the GI50 is > 100 µM (inactive) in [7]; > 100 µM (inactive) in assay [8]; < 0.01 µM (active) in [9]; 72.4 µM (inactive) in assay [10]; > 100 µM (inactive) in [11]; > 100 µM (inactive) in assay [12]. For the same compound, the GI50 in [13], in assay [14], in assay [15], in assay [16], in assay [17] and in [18] was > 100 µM (inactive) in each case. Besides, the GI50 in [19] is 40.1 µM (inactive).

For `Cc1ccc(S(=O)(=O)N2CCCC2C(=O)O[C@H]2CC[C@H]3CC=C[C@H]32)cc1` (some centres not stated), the GI50 was 41.4 µM (inactive) in assay [1]; 25 µM (inactive) in [2]; 33.7 µM (inactive) in assay [3]; 31.8 µM (inactive) in assay [4]; 24.5 µM (inactive) in assay [5]; 18.9 µM (inactive) in assay [6]. In addition, the GI50 in [7] is 67.6 µM (inactive); in assay [8] it was > 10 µM (inactive); in [9] it was > 10 µM (inactive); in assay [10] it was > 74.6 µM (inactive); in assay [11] it was 38.7 µM (inactive); in assay [12] it was > 10 µM (inactive). Moreover, the GI50 was 45.4 µM (inactive) in assay [13]; > 55.8 µM (inactive) in assay [14]; 29.9 µM (inactive) in assay [15]; 41.3 µM (inactive) in assay [16]; 27.8 µM (inactive) in [17]; 45.4 µM (inactive) in assay [18]. The GI50 in assay [19] is 24.7 µM (inactive).

For the compound `CCCCC1Nc2ccccc2-c2ccnc(Cl)c21` (configuration not stated), the GI50 in assay [20] was 18.5 µM (inactive); in assay [1] it was 15 µM (inactive); in assay [2] it was 25.8 µM (inactive); in assay [3] it was 20.3 µM (inactive); in assay [5], 27.7 µM (inactive); in assay [6], 19.5 µM (inactive). In addition, the GI50 in assay [7] is 38.7 µM (inactive); in assay [8] it was 33 µM (inactive); in assay [9], 17.8 µM (inactive); in assay [10] it was 13.5 µM (inactive); in assay [11], 19.1 µM (inactive); in assay [12] it was 20.5 µM (inactive). Further, the GI50 in assay [13] was 21.4 µM (inactive); in assay [14], 20.1 µM (inactive); in assay [15], 17.8 µM (inactive); in assay [16], 19 µM (inactive); in assay [17], 20.8 µM (inactive); in assay [18], 19.3 µM (inactive). The GI50 in assay [19] was 17.6 µM (inactive).

As for `Cc1ccc(O)c(C2=CC3=NNC(=O)C3C(c3cccc(Cl)c3)C2)c1` (configuration not stated), the GI50 is 2.56 µM (inactive) in assay [20]; 36.3 µM (inactive) in assay [1]; 40.6 µM (inactive) in [2]; 23.9 µM (inactive) in [3]; 26.2 µM (inactive) in assay [4]; 50.4 µM (inactive) in assay [5]. The GI50 is 52.1 µM (inactive) in [6]; 20.7 µM (inactive) in assay [7]; 28.1 µM (inactive) in assay [8]; 51.9 µM (inactive) in assay [9]; 18.5 µM (inactive) in assay [10]; 52 µM (inactive) in assay [11]. The GI50 in [12] was 43.4 µM (inactive); in assay [13] it was 35.5 µM (inactive); in assay [14] it was 12.8 µM (inactive); in assay [15], 28.1 µM (inactive); in assay [16], 31.2 µM (inactive); in assay [17], 32.5 µM (inactive). Also, the GI50 in [18] was 58.9 µM (inactive).

On to `C[C@]12[C@@H]3CC[C@H]1[C@@H](O)C(=O)N2CC3`, for which the GI50 in assay [20], in [1], in assay [2], in [3], in [4] and in [5] was > 100 µM (inactive) each time. Also, the GI50 in [6], in assay [7], in [8], in assay [9], in [10] and in assay [11] was > 100 µM (inactive) throughout. In addition, the GI50 in [12], in assay [13], in [14], in [15], in assay [16] and in assay [17] was > 100 µM (inactive) each time. In addition, the GI50 in assay [18] was > 100 µM (inactive).

On to `CC1C(=O)OCC2=CCN3CCC(OC(=O)C(C)C1(C)O)C23` (configuration not stated), for which the GI50 in assay [1], in assay [2], in assay [3], in assay [4], in assay [5] and in assay [6] was > 100 µM (inactive) in each case. Further, the GI50 in assay [7], in assay [8], in assay [9], in [10], in assay [11] and in assay [12] was > 100 µM (inactive) each time. Besides, the GI50 in [13], in [14], in assay [15], in assay [16], in assay [17] and in [19] was > 100 µM (inactive) in each case.

Regarding `CCN1CCCC(C#N)(c2ccccc2)CC1` (configuration not stated), the GI50 is > 100 µM (inactive) in assay [20]; 61.7 µM (inactive) in [1]; > 100 µM (inactive) in assay [2]; > 100 µM (inactive) in [3]; > 100 µM (inactive) in [4]; > 100 µM (inactive) in assay [5]. The GI50 in assay [6] was > 100 µM (inactive); in assay [7] it was > 100 µM (inactive); in [8] it was > 100 µM (inactive); in [9], > 100 µM (inactive); in [10], 99.5 µM (inactive); in assay [11] it was > 100 µM (inactive). Besides, the GI50 in [12], in [13], in [14], in [15], in assay [16] and in [18] was > 100 µM (inactive) in each case.

As for `O=C1/C(=C/c2ccccc2[N+](=O)[O-])N=C(c2ccccc2)N1C1Nc2cc3c(cc2S1)NC(N1C(=O)/C(=C/c2ccccc2[N+](=O)[O-])N=C1c1ccccc1)S3` (configuration not stated), the GI50 in assay [20] was > 100 µM (inactive); in assay [1], 50 µM (inactive); in [2], 32.9 µM (inactive); in assay [4], 39.5 µM (inactive); in assay [5] it was 25.3 µM (inactive); in [6], 22.3 µM (inactive). Moreover, the GI50 in assay [7] is 16.7 µM (inactive); in [8], 72.4 µM (inactive); in assay [9] it was 24 µM (inactive); in [10], > 100 µM (inactive); in assay [11], 68.5 µM (inactive); in [12], 30.8 µM (inactive). For the same compound, the GI50 in assay [13] is 31 µM (inactive); in assay [14], 53.5 µM (inactive); in [15], > 100 µM (inactive); in assay [16], 55.2 µM (inactive); in assay [18] it was 89.5 µM (inactive); in assay [19], 31.5 µM (inactive).

For the compound `COC(=O)C1CC2CCC1(O[Si](C(C)C)(C(C)C)C(C)C)C(O)C2` (configuration not stated), the GI50 in assay [20] was 15 µM (inactive); in assay [1] it was 18.1 µM (inactive); in assay [2], 20.7 µM (inactive); in [3], 43.4 µM (inactive); in assay [4], 14.9 µM (inactive); in [5], 31.8 µM (inactive). Besides, the GI50 in assay [6] is 16.9 µM (inactive); in assay [7] it was 21.8 µM (inactive); in assay [9] it was 13.1 µM (inactive); in assay [10], 21.9 µM (inactive); in assay [11] it was 17.3 µM (inactive); in [12] it was 16.4 µM (inactive). Besides, the GI50 in assay [13] is 16.5 µM (inactive); in assay [14], 28.6 µM (inactive); in [15], 19.4 µM (inactive); in assay [16] it was 25.8 µM (inactive); in [17], 17.9 µM (inactive); in assay [18], 18.4 µM (inactive). Also, the GI50 in [19] was 21.2 µM (inactive).
